Measurements from US10526502B2, “Container coating system” (SWIMC LLC, priority 2012, dated 2020).

Tested on: MCF-7, clone WS8, cells
Test: MCF-7 cell proliferation assay of estrogenic activity
Type: cell-based, human
Conditions: logarithmic (base 10) Relative Proliferative Effect vs 17-beta estradiol; values 'expected or measured'
From the text: The MCF-7 assay is a useful test for assessing whether a polyhydric phenol compound is appreciably non-estrogenic. The MCF-7 assay uses MCF-7, clone WS8, cells to measure whether and to what extent a substance induces cell proliferation via estrogen receptor (ER)-mediated pathways. The method is described in “Test Method Nomination: MCF-7 Cell Proliferation Assay of Estrogenic Activity” submitted for validation by CertiChem, Inc. to the National Toxicology Program Interagency Center for the Evaluation of Alternative Toxicological Methods (NICEATM) on Jan. 19, 2006 (available online at iccvam.niehs.nih.gov/methods/endocrine/endodocs/SubmDoc.pdf).
A brief summary of the method of the aforementioned MCF-7 assay is provided below. MCF-7, clone WS8, cells are maintained at 37° C. in RMPI (Roswell Park Memorial Institute medium) containing Phenol Red (e.g., GIBCO Catalog Number 11875119) and supplemented with the indicated additives for routine culture. An aliquot of cells maintained at 37° C. are grown for two days in phenol-free media containing 5% charcoal stripped fetal bovine serum in a 25 cm^2 tissue culture flask. Using a robotic dispenser such as an EPMOTION™ 5070 unit from Eppendorf AG, MCF-7 cells are then seeded at 400 cells per well in 0.2 ml of hormone-free culture medium in CORNING™ 96-well plates from Corning Life Sciences. The cells are adapted for 3 days in the hormone-free culture medium prior to adding the chemical to be assayed for estrogenic activity. The media containing the test chemical is replaced daily for 6 days. At the end of the 7 day exposure to the test chemical, the media is removed, the wells are washed once with 0.2 ml of HBSS (Hanks' Balanced Salt Solution), and then assayed to quantify amounts of DNA per well using a micro-plate modification of the Burton diphenylamine (DPA) assay, which is used to calculate the level of cell proliferation. […]
Table I shown below includes exemplary preferred polyhydric phenol compounds of Formula II and their expected or measured logarithmic RPE values in the MCF-7 assay.

Question: Which “Log RPE” value does the source give for C[C@]12CC[C@@H]3c4ccc(O)cc4CC[C@H]3[C@@H]1CC[C@@H]2O [17β-estradiol] here?
Answer: 2.00

Question: For Oc1ccc(Cc2ccc(O)cc2)cc1 [Bisphenol F], which “Log RPE” value is on record?
Answer: −2

Question: Which “Log RPE” value does the source give for O=S(=O)(c1ccc(O)cc1)c1ccc(O)cc1 [Bisphenol S] here?
Answer: −2

Target: T1, human estrogen receptor (Homo sapiens, UniProt P03372)
T1 sequence (P03372 1-595): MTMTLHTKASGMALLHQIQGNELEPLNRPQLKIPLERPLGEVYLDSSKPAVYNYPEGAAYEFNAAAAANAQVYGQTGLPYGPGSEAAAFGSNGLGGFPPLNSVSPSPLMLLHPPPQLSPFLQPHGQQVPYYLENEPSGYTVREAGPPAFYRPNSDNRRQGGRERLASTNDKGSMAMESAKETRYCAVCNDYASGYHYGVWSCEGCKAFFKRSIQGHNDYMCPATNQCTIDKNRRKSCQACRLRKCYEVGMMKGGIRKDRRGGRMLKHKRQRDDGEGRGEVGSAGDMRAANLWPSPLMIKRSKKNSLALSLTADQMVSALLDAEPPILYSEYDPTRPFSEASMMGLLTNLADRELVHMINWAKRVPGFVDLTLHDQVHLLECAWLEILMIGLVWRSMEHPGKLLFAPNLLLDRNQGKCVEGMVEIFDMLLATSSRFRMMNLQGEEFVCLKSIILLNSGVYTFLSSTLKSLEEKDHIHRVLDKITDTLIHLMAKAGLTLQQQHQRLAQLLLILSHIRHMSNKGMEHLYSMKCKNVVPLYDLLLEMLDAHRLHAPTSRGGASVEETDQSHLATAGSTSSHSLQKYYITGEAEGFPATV
Test: suitable in vitro assay whose results are directly correlated to the MCF-7 assay
Conditions: in vitro assay correlated to MCF-7 through common reference compounds

Question: For Cc1cc(Cc2cc(C)c(O)c(C)c2)cc(C)c1O [Structure 6, 4,4′-methylenebis(2,6-dimethylphenol)], which estrogenic activity is on record?
Answer: do not exhibit appreciable estrogenic activity

Question: With CCCC(c1cc(C(C)(C)C)c(O)cc1C)c1cc(C(C)(C)C)c(O)cc1C [Structure 7, 4,4′-butylidenebis(2-t-butyl-5-methylphenol)] as the compound, how does the estrogenic activity read?
Answer: do not exhibit appreciable estrogenic activity

Question: Which estrogenic activity does the source give for CC(C)(C)c1cc(Cc2cc(C(C)(C)C)c(O)c(C(C)(C)C)c2)cc(C(C)(C)C)c1O [Structure 8, 4,4′-methylenebis(2,6-di-t-butylphenol)] here?
Answer: do not exhibit appreciable estrogenic activity

Question: For Cc1cc(Cc2cc(C)cc(C(C)(C)C)c2O)c(O)c(C(C)(C)C)c1 [Structure 9], which estrogenic activity is on record?
Answer: do not exhibit appreciable estrogenic activity

Question: For CC(C)(C)c1cc(O)c(C(C)(C)C)cc1O [Structure 12, 2,5-di-t-butylhydroquinone], which estrogenic activity is on record?
Answer: do not exhibit appreciable estrogenic activity

Tested on: not listed separately
Test: suitable genotoxicity assays (e.g., Ames II assay)
Type: cell-based
Conditions: not given
Experimental: A solution of 4,4′-methylenebis(2,6-di-t-butylphenol) (500 grams, 1.076 moles obtained from Albemarle Corporation) in anhydrous dimethylformamide (1.5 liters) was cooled to −10° C. and a solution of sodium tert-pentoxide (374 grams, 3.23 moles) in anhydrous dimethylformamide (1.5 liters) was added dropwise at −10 to −5° C. The mixture was stirred for 30 minutes at −10° C. Epichlorohydrin (1.9 liters, 24.2 moles) was added via dropping funnel at −10 to −5° C. The solution was allowed to warm up to room temperature and then was heated for 16 hours at a temperature of from 75 to 82° C. After cooling down to ambient temperature, the mixture was added to cold tap water (12 liters). Ethyl acetate (5 liters) was added to the mixture, which was stirred for 10 minutes and separated. The aqueous layer was extracted again with additional ethyl acetate (3 liters). The combined ethyl acetate extracts were washed twice with brine (2×6 liters), dried over anhydrous sodium sulfate (600 grams), and filtered. The solvent was removed under reduced pressure to give 887 grams of crude product as a purple oil. The crude product was dissolved in toluene (600 milliliters) and passed over a silica gel pad (1.4 kilograms), and eluted with a mixture of toluene and heptane (8 parts toluene to 2 parts heptane). The fractions containing product were combined and evaporated under reduced pressure. […]

Question: For CC(C)(C)c1cc(Cc2cc(C(C)(C)C)c(OCC3CO3)c(C(C)(C)C)c2)cc(C(C)(C)C)c1OCC1CO1 (stereo not shown) [Diglycidyl ether of 4,4′-methylenebis(2,6-di-tert-butylphenol)], which genotoxicity is on record?
Answer: non-genotoxic

Question: For CCCC(c1cc(C(C)(C)C)c(OCC2CO2)cc1C)c1cc(C(C)(C)C)c(OCC2CO2)cc1C (stereo not shown) [Diglycidyl ether of 4,4′Butylidenebis(2-t-butyl-5-methylphenol))], which genotoxicity is on record?
Answer: non-genotoxic
